Data from patent publication US10597388B2, “Pyridazinone herbicides” (FMC CORPORATION, priority 2014, dated 2020).

Legend:
Format in all cases: in vivo
[1] = system: corn (Zea mays); test: Test A greenhouse herbicide test, pre- and postemergence; conditions: Postemergence
Outline: (§1)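 Seeds in loam–sand blend received a preemergence directed soil spray; plants at 2–10 cm, one- to two-leaf stage, received postemergence sprays. Compounds in a non-phytotoxic solvent with surfactant. After about 10 d in a greenhouse, injury rated visually versus untreated controls on a 0–100 scale (100 = complete control).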

[2] = system: ragweed (common ragweed, Ambrosia elatior); test: as above
Outline: as §1

[3] = system: barnyardgrass (Echinochloa crus-galli); test: as above
Outline: as §1

[4] = system: pigweed (Amaranthus retroflexus); test: as above
Outline: as §1

[5] = system: wheat (Triticum aestivum); test: as above; conditions: Postemergence
Outline: as §1

[6] = system: foxtail, giant (giant foxtail, Setaria faberii); test: as above
Outline: as §1

[7] = system: ryegrass, Italian (Italian ryegrass, Lolium multiflorum); test: as above
Outline: as §1

[8] = system: kochia (Kochia scoparia); test: as above
Outline: as §1

[9] = system: oat, wild (wild oat, Avena fatua); test: Test C greenhouse herbicide test, postemergence
Outline: (§2)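 Greenhouse postemergence spray on plants 2–18 cm tall; response judged visually after 13–15 d relative to untreated controls using a 0 (none) to 100 (full control) scale.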

[10] = system: kochia (Kochia scoparia); test: Test C greenhouse herbicide test, postemergence
Outline: as §2

[11] = system: galium (catchweed bedstraw, Galium aparine); test: Test A greenhouse herbicide test, postemergence
Outline: (§3)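 Pot-grown plants (loam soil/sand blend), 2–10 cm tall at the one- to two-leaf stage, received postemergence sprays of formulated test chemical. After about 10 d in the greenhouse, injury was rated visually against untreated controls on a 0 (no effect) to 100 (complete control) scale.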

[12] = system: blackgrass (Alopecurus myosuroides); test: Test A greenhouse herbicide test, postemergence
Outline: as §3

[13] = 125 g ai/ha, 0 to 100 scale, 0 no effect, 100 complete control
[14] = 500 g ai/ha, visual rating after approx. 10 d, 0 to 100 scale (0 no effect, 100 complete control)
[15] = Postemergence, 125 g ai/ha, 0 to 100 scale, 0 no effect, 100 complete control
[16] = Postemergence, 500 g ai/ha, visual rating after approx. 10 d, 0 to 100 scale (0 no effect, 100 complete control)
[17] = Preemergence, 125 g ai/ha, visual injury rating, 0 to 100 scale (0 no effect, 100 complete control), approx. 10 d
[18] = Preemergence, 500 g ai/ha, 0 to 100 scale where 0 is no effect and 100 is complete control
[19] = Postemergence, 31 g ai/ha, scale 0 to 100 (0 no effect, 100 complete control)
[20] = Postemergence, 62 g ai/ha, 0 to 100 scale (0 no effect, 100 complete control)
[21] = Postemergence, 250 g ai/ha, scale 0 to 100, 0 is no effect, 100 is complete control
[22] = postemergence, 125 g ai/ha, scale 0 to 100, 0 no effect, 100 complete control
[23] = 125 g ai/ha, 0 to 100 scale where 0 is no effect and 100 is complete control
[24] = Postemergence, 125 g ai/ha, 0 to 100 scale where 0 is no effect and 100 is complete control
[25] = Preemergence, 125 g ai/ha, 0 to 100 scale where 0 is no effect and 100 is complete control
[26] = Postemergence, 16 g ai/ha, scale 0 to 100 (0 no effect, 100 complete control)

Row | SMILES | Plant response rating, Corn [1, 14] | Plant response rating, Ragweed [2, 16] | Plant response rating, Ragweed [2, 18] | Plant response rating, Barnyardgrass [3, 16] | Plant response rating, Barnyardgrass [3, 18] | Plant response rating, Pigweed [4, 16] | Plant response rating, Pigweed [4, 18] | Plant response rating, Wheat [5, 14] | Plant response rating, Foxtail, Giant [6, 16] | Plant response rating, Foxtail, Giant [6, 18] | Plant response rating, Ryegrass, Italian [7, 16] | Plant response rating, Ryegrass, Italian [7, 18] | Plant response rating, Kochia [8, 16] | Plant response rating, Kochia [8, 18] | Plant response rating, Oat, Wild [9, 19] | Oat, Wild plant response rating [9, 20] | Oat, Wild plant response rating [9, 22] | Plant response rating, Kochia [10, 19] | Kochia plant response rating [10, 20] | Kochia plant response rating [10, 22] | other results
1 | Cc1ccc2ccccc2c1-c1c(OC(=O)N2CCOCC2)c(Br)nn(C)c1=O [Compound 176] | 0 | 100 | 70 | 10 | 10 | 90 | 90 | 0 | 10 | 10 | 100 | 90 | 70 | 20 | 0 | 5 | 10 | 90 | 90 | 95 | Plant response rating, Corn [1, 13]: 0; Plant response rating, Ragweed [2, 15]: 40; Plant response rating, Ragweed [2, 17]: 20; Plant response rating, Barnyardgrass [3, 15]: 0; Plant response rating, Barnyardgrass [3, 17]: 0; Plant response rating, Pigweed [4, 15]: 30; Plant response rating, Pigweed [4, 17]: 0; Plant response rating, Wheat [5, 13]: 0; Plant response rating, Foxtail, Giant [6, 15]: 0; Plant response rating, Foxtail, Giant [6, 17]: 0; Plant response rating, Ryegrass, Italian [7, 15]: 30; Plant response rating, Ryegrass, Italian [7, 17]: 0; Plant response rating, Kochia [8, 15]: 30; Plant response rating, Kochia [8, 17]: 0; Plant response rating, Oat, Wild [9, 21]: 35; Plant response rating, Kochia [10, 21]: 100; Plant response rating, Galium [11, 13]: 90; Plant response rating, Galium [11, 14]: 100; Plant response rating, Blackgrass [12, 13]: 30; Plant response rating, Blackgrass [12, 14]: 30
2 | COC(=O)Oc1cnn(C)c(=O)c1-c1c(C)ccc2ccccc12 [Compound 143] | 20 | 70 | 90 | 60 | 80 | 90 | 100 | 50 | 60 | 70 | 100 | 100 | 90 | 70 | 40 | 55 | 60 | 30 | 60 | 60 | Plant response rating, Corn [1, 23]: 0; Plant response rating, Ragweed [2, 24]: 70; Plant response rating, Barnyardgrass [3, 24]: 20; Barnyardgrass plant response rating [3, 25]: 20; Plant response rating, Pigweed [4, 24]: 90; Pigweed plant response rating [4, 25]: 80; Plant response rating, Wheat [5, 23]: 0; Plant response rating, Foxtail, Giant [6, 24]: 20; Foxtail, Giant plant response rating [6, 25]: 20; Plant response rating, Ryegrass, Italian [7, 24]: 80; Plant response rating, Kochia [8, 24]: 70; Kochia plant response rating [8, 25]: 10; Plant response rating, Oat, Wild [9, 26]: 30; Plant response rating, Kochia [10, 26]: 0; Plant response rating, Galium [11, 23]: 90; Plant response rating, Galium [11, 14]: 100; Plant response rating, Blackgrass [12, 23]: 40; Plant response rating, Blackgrass [12, 14]: 60
